Patent US20070275100A1, “Use of gaseous nitric oxide as an anti-cancer agent” (priority 1998, published 2007)

How the values were obtained:
[1] = system: non-small cell lung cancer (NSCLC) cells lines; experiment: MTS cell proliferation assay, 25,000 ppm gNO, NSCLC cell lines taken together (Examples 4 and 5); assay type: cell-based, human
Text: (§1) The purpose of this example is to illustrate the tumorcidal activity of high-dosage gNO. We examined the cellular sensitivity to 25,000 ppm of gNO on 5 non-small cell lung cancer (NSCLC) cells lines by an MTS cell proliferation assay.
Human lung cancer cell lines A549, NCI-H23, NCI-H460, HTB-58, H2170, and H441 (commercially available from American Type Culture Collection (“ATCC”), Manassas, Va.) were maintained in culture medium recommended by ATCC. All media were supplemented with 1% penicillin/streptomycin and 10% fetal bovine serum (commercially available from Invitrogen Gibco-BRL, Burlington, Ontario, Canada). All cell lines were incubated in a humidified incubator at 37° C. supplied with 5% carbon dioxide. The cell lines were tested regularly for the absence of Mycoplasma infections. The cells were routinely maintained in 25 cm tissue culture flasks (commercially available from BD Biosciences Discovery Labware, Oakville, Ontario, Canada) and were harvested by 0.25% trypsin (commercially available from Invitrogen-Gibco-BRL) treatment when they were in a logarithmic phase of growth for all experiments. […]
(§2) After 24 hours, the A549, NCI-H23, NCI-H460, HTB-58, H2170 and H441 cells were treated with 25,000 ppm gNO or air (control) for 1 minute, 3 minutes, 6 minutes, 9 minutes, 10 minutes, 20 minutes, and 30 minutes. Immediately following treatment, the viability of the cells was determined using a colorimetric MTS (3-(4,5-dimethylthiazol-2-yl)-5-(3-carboxymethoxyphenyl)-2-(4-sulfophenyl)-2H-tetrazolium, inner salt) cell proliferation assay (commercially available as the CellTiter 960 Aqueous One Solution Cell Proliferation Assay (MTS) from Promega, Madison, Wis., USA) according to the manufacturer's protocol. […] Absorbance was measured at 490 nm for each well using a micro-plate reader (commercially available from Dynex Technologies, Chantilly, Va., USA). The relative percentage of cell survival (viability) was calculated by dividing the absorbance of treated cells by that of control cells for each experimental time point. […]

[2] = system: normal human fibroblast cells (NHLF); experiment: Viability under 25,000 ppm gNO (Example 5), NHLF; assay type: cell-based
Protocol: (§3) After 24 hours, the A549, NCI-H23, NCI-H460, HTB-58, H2170 and H441 cells were treated with 25,000 ppm gNO or air (control) for 1 minute, 3 minutes, 6 minutes, 9 minutes, 10 minutes, 20 minutes, and 30 minutes. Immediately following treatment, the viability of the cells was determined using a colorimetric MTS (3-(4,5-dimethylthiazol-2-yl)-5-(3-carboxymethoxyphenyl)-2-(4-sulfophenyl)-2H-tetrazolium, inner salt) cell proliferation assay (commercially available as the CellTiter 960 Aqueous One Solution Cell Proliferation Assay (MTS) from Promega, Madison, Wis., USA) according to the manufacturer's protocol. Briefly, […] of MTS solution was added to each well and the cells were incubated for 2 hours at 37° C. Absorbance was measured at 490 nm for each well using a micro-plate reader (commercially available from Dynex Technologies, Chantilly, Va., USA). The relative percentage of cell survival (viability) was calculated by dividing the absorbance of treated cells by that of control cells for each experimental time point.
(§4) The purpose of this example is to illustrate the effects on normal human cell lines compared to the effects on cancerous cell lines of high-dosage gNO. The above study was repeated. […]

HTB-58 = experiment: MTS cell proliferation assay, 25,000 ppm gNO (Example 4), HTB-58; assay type: cell-based, human
Text: as §1
Human lung cancer cell lines A549, NCI-H23, NCI-H460, HTB-58, H2170, and H441 (commercially available from American Type Culture Collection (“ATCC”), Manassas, Va.) were maintained in culture medium recommended by ATCC. All media were supplemented with 1% penicillin/streptomycin and 10% fetal bovine serum (commercially available from Invitrogen Gibco-BRL, Burlington, Ontario, Canada). […]
as §2, with “USA).” for “USA). The relative percentage of cell survival (viability) was calculated by dividing the absorbance of treated cells by that of control cells for each experimental time point.”

Staphylococcus aureus = experiment: High dose gNO on Staphylococcus aureus plated on blood agar (Example 2); assay type: cell-based; conditions: 25,000 ppm gNO
Text: The purpose of this example is to observe the possibility of a novel bactericidal high dose (25,000 ppm) effect of gaseous nitric oxide (gNO) on an ATCC strain of Staphylococcus aureus plated on a blood agar media and determine a time effect of this dosage.
A closed environment treatment chamber was used (see, “A direct nitric oxide gas delivery system for bacterial and mammalian cell cultures,” A. Ghaffari, D. H. Neil, A. Ardakani, J. Road, A. Ghahary, C. C. Miller. Nitric Oxide 12(3):129-140, 2005, herein incorporated by reference in its entirety). The following steps were performed: • 1. Calibrated the AeroNOx analyzer as per standard procedure. • 2. Calibrated the closed environment treatment chamber as per standard procedure. • 3. In a 50 mL tube, known Staphylococcus aureus bacteria in 10 mL Nutrient Broth was grown overnight or for about 12 hours in a shaker incubator. • 4. Measured optical density of grown Staphylococcus aureus using a spectrophotometer set at 600 nm. Used original nutrient broth as a blank. O.D. should be 1.0±10%. • 5. Turned on closed environment treatment chamber. • 6. Labeled three plates: Air, NO+1 minute, NO+3 minutes. • 7. Immersed a sterile cotton swab into the bacterial mixture in the 50 mL tube and shaked off excess liquid. • 8. Swiped one plate entirely in two directions with the swab. • 9. Repeated steps 7-8 using the cotton swab for the remaining […] plates. • 10. Using clean technique, utilized the device to administer either air or 25,000 ppm gNO at a fixed distance and flow towards the inoculated agar media. The agar plate was enclosed in an isolated plastic box with lid. A micropipette through which the gas flowed was affixed to the box lid. The box lid was sealed through the use of plastic wrap. The micropipette was in fluid communication with the gaseous mixing manifold in order to deliver the specified concentrations. • 11. Placed the three treated plates into the laboratory incubator. • 12. Removed plates after 8 hours and placed in a 37° C. incubator for 12-16 hours. • 13. After incubation, recorded results with digital pictures. • 14. Sealed plates with paraffin and refrigerated for storage.

[3] = system: normal human bronchial epithelial cells (NHBE); experiment: Viability under 25,000 ppm gNO (Example 5), NHBE; assay type: cell-based; conditions: after 6 minutes, FIG. 8 A
Protocol: as §3, §4

[N]=O [gNO, nitric oxide]
viability at 25000 ppm ([1]; Homo sapiens, 0.15 h, at 9 minutes, read-out: viability, mean value of the other three NSCLC lines): 10.7 ± 2.08%
cells killed, all five cancer cell lines ([1]; between 6 and 9 minutes, Example 4): 75-95%
cells killed, all five cancer cell lines ([1]; between about 6 and about 9 minutes, repeat study, Example 5): 75-95%
viability ([2]; after 6 minutes, FIG. 8 C): about 30%
viability of normal lung fibroblasts ([2]; after 15 minutes of exposure): 30%
IC50 (exposure time) (HTB-58): about 7 minutes
effect on the growth of S. aureus (Staphylococcus aureus; 1 minute): profound inhibitory effect
plate appearance after incubation (FIG. 4) (Staphylococcus aureus; 1 minute of exposure): the plate still shows signs of the S. aureus
effect on the growth of S. aureus (Staphylococcus aureus; 3 minutes): possible cidal effect
plate appearance after incubation (FIG. 5) (Staphylococcus aureus; 3 minutes of exposure): the plate shows no signs of the S. aureus
viability [3]: less than 10%
